Data on 24 molecules can be found in patent US20100004284A1, “Novel Heterocyclic Compounds as Positive Allosteric Modulators of Metabotropic Glutamate Receptors” (ADDEX PHARMA SA, priority 2005, published 2010).

Molecules are shown by their SMILES.

The target in one data set is T1, mGluR5 (Rattus norvegicus, UniProt P31424).
T1 construct: positive allosteric modulators of mGluR5 receptors in native preparations; endogenous in cells; host or cells: primary cortical astrocytes from Sprague-Dawley rat embryos (E16-19)
T1 sequence (P31424 21-1203): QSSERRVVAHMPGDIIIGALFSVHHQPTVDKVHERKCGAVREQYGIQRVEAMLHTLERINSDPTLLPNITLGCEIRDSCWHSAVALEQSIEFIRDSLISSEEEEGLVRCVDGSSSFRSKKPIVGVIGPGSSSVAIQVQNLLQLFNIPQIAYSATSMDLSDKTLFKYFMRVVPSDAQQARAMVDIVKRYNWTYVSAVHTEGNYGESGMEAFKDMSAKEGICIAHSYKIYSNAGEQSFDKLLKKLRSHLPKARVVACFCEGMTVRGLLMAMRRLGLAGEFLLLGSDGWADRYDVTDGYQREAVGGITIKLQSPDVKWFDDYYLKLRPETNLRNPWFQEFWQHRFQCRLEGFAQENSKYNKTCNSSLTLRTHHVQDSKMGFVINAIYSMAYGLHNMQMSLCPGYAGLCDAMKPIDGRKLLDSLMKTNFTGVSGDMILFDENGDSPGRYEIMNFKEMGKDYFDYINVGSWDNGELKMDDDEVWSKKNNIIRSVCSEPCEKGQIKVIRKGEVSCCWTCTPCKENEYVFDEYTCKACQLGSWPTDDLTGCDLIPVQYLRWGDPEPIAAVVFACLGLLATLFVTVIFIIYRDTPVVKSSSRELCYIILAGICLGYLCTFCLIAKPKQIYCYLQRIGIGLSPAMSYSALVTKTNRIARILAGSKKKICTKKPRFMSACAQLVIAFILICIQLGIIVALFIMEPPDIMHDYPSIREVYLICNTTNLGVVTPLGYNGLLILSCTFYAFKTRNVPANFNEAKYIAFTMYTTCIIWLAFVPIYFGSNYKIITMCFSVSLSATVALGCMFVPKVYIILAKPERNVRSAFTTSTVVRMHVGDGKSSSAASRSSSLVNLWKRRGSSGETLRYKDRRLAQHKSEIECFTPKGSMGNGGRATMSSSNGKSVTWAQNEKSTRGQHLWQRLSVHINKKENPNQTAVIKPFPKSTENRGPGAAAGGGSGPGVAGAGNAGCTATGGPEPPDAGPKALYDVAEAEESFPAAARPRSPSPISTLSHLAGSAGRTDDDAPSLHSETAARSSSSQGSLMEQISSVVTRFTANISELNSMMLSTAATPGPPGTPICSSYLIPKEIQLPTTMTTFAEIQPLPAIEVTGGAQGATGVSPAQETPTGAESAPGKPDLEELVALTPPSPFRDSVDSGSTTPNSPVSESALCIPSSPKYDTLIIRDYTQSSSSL
The conditions noted are these: cited from earlier work.

The next data set deals with T2, rat mGluR5 (Rattus norvegicus, UniProt P31424).
T2 construct: expressed in transfected cells
T2 sequence (P31424 21-1171 isoform P31424-2 limits assumed): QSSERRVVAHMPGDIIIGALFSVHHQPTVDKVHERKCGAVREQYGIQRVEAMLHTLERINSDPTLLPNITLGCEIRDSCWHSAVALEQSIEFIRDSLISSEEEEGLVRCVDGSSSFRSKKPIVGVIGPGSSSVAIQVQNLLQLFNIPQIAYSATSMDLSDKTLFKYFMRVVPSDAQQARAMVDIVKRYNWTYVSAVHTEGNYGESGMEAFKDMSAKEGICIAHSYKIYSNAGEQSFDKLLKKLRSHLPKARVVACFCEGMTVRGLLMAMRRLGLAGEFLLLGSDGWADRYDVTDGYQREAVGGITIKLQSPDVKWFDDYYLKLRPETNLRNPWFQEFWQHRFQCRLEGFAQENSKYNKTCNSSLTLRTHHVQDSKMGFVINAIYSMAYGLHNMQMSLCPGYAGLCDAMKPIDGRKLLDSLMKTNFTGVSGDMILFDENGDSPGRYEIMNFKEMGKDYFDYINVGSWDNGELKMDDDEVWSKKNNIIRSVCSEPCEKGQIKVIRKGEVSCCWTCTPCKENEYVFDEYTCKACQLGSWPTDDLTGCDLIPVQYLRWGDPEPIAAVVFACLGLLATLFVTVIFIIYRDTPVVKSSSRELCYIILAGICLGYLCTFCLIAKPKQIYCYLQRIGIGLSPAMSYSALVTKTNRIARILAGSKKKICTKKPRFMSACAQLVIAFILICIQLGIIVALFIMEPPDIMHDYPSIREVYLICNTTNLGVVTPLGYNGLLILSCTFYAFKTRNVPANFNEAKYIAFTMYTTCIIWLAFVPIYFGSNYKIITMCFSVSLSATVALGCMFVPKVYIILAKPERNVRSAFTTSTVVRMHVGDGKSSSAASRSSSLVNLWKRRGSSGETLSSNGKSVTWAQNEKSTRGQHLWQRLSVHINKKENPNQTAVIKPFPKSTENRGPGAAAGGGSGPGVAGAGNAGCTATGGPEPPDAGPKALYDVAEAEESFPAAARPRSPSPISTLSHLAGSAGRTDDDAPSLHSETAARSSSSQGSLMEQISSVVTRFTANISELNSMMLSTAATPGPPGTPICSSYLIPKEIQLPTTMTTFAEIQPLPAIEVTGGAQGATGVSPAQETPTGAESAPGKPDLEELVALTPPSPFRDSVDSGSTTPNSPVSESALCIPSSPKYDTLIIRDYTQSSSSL
Nature of the data set: mGluR5 assay on HEK-expressing rat mGluR5 (fluorescent cell based Ca2+ mobilization assay). As to conditions: for activation of rat mGluR5 receptors without co-addition of glutamate or mGluR5 agonist: HEK-rat mGluR5 cell line; for EC50: HEK-293 cells stably expressing rat mGluR5, no co-addition of glutamate, mean of at least three independent experiments in duplicate, read-out: Ca++ Flux (mean EC50). The protocol:
Positive functional expression of HEK-293 cells stably expressing rat mGluR5 receptor was determined by measuring intracellular Ca^2+ changes using a Fluorometric Imaging Plate Reader (FLIPR, Molecular Devices, Sunnyvale, Calif.) in response to glutamate or selective known mGluR5 agonists and antagonists. Rat mGluR5RT-PCR products in HEK-293 cells were sequenced and found 100% identical to rat mGluR5Genbank reference sequence (NM_017012). HEK-293 cells expressing rmGluR5 were maintained in media containing DMEM, dialyzed Fetal Bovine Serum (10%), Glutamax™ (2 mM), Penicillin (100 units/ml), Streptomycin (100 μg/ml), Geneticin (100 μg/ml) and Hygromycin-B (40 μg/ml) at 37° C./5% CO2.
After one day of incubation, cells were washed with assay buffer containing: 142 mM NaCl, 6 mM KCl, 1 mM […], 1 mM CaCl2, 20 mM HEPES, 1 g/L glucose, 0.125 mM sulfinpyrazone, pH 7.4. After 60 min of loading with 4 uM Fluo-4 (TefLabs, Austin, Tex.), the cells were washed three times with 50 μl of PBS Buffer and resuspended in 45 μl of assay Buffer. The plates were then transferred to a Fluorometric Imaging Plate Reader (FLIPR, Molecular Devices, Sunnyvale, Calif.) for the assessment of intracellular calcium flux. After monitoring the baseline fluorescence for 10 seconds, increasing concentrations of representative compound (from 0.01 to 60 μM) of the present invention diluted in Assay Buffer (15 μl of 4× dilutions) was added to the cell. The final DMSO concentration in the assay was 0.3%. In each experiment, fluorescence was then monitored as a function of time for 3 minutes and the data analyzed using Microsoft Excel and GraphPad Prism. Each data point was also measured two times.
Under these experimental conditions, this HEK-rat mGluR5 cell line is able to directly detect positive allosteric modulators without the need of co-addition of glutamate or mGluR5 agonist.
The concentration-response curves of representative compounds of the present invention were generated using the Prism GraphPad software (Graph Pad Inc, San Diego, USA). The curves were fitted to a four-parameter logistic equation:
(Y=Bottom+(Top−Bottom)/(1+10̂((Log EC50−X)*Hill Slope)
allowing determination of EC50 values.
The Table 5 below represents the mean EC50 obtained from at least three independent experiments of selected molecules performed in duplicate.

As for `N#Cc1cccc(C(=O)Nc2cc(-c3ccccc3)nn2-c2ccccc2)c1` [CDPPB, reference compound], the “activity in rat cortical astrocytes culture in the absence of added glutamate” value (from here on “activity”) at mGluR5 was “inactive”. The “activation of rat mGluR5 receptors without co-addition of glutamate or mGluR5 agonist” value at rat mGluR5 is given as “activating”.

For `O=C(Nc1ccc(Cl)cc1CN1C(=O)c2ccccc2C1=O)c1ccccc1O` [CPPHA, reference compound], the “activity” value at mGluR5 is “inactive”. For the same molecule, on rat mGluR5, the “activation of rat mGluR5 receptors without co-addition of glutamate or mGluR5 agonist” value was “activating”.

As to `Fc1cccc(/C=N/N=C/c2cccc(F)c2)c1` [DFB, reference compound], at mGluR5, the “activity” value was “inactive”. The “activation of rat mGluR5 receptors without co-addition of glutamate or mGluR5 agonist” value on rat mGluR5 is on record as “activating”.

As for `O=C(c1ccc(F)c(F)c1)N1CCC[C@H](c2nc(Cc3ccc(F)cc3)no2)C1` [Example 2, (3,4-Difluoro-phenyl)-{(S)-3-[3-(4-fluoro-benzyl)-[1,2,4]oxadiazol-5-yl]-piperidin-1-yl}-methanone], on rat mGluR5, the EC50 is less than 1000 nM.

Consider `O=C(c1ccc(F)c(F)c1)N1CCC[C@H](c2noc(Cc3ccc(F)cc3)n2)C1` [Example 3, (3,4-Difluoro-phenyl)-{(S)-3-[5-(4-fluoro-benzyl)-[1,2,4]oxadiazol-3-yl]-piperidin-1-yl}-methanone], for which, on rat mGluR5, the concentration for a half-maximal effect (EC50) is less than 1000 nM.

In the case of `O=C(c1ccc(F)cc1)N1CCC[C@H](c2noc(Cc3ccc(F)cc3)n2)C1` [Example 4, {(S)-3-[5-(4-Fluoro-benzyl)-[1,2,4]oxadiazol-3-yl]-piperidin-1-yl}-(4-fluoro-phenyl)-methanone], at rat mGluR5, the EC50 was less than 1000 nM.

Regarding `C[C@@H](c1ccccc1)c1nc([C@H]2CCCN(C(=O)c3ccc(F)cc3)C2)no1` [Example 5, (4-Fluoro-phenyl)-{(S)-3-[5-((S)-1-phenyl-ethyl)-[1,2,4]oxadiazol-3-yl]-piperidin-1-yl}-methanone], the EC50 on rat mGluR5 lay within 1000 to 10000 nM.

Take `C[C@H](c1ccccc1)c1nc([C@H]2CCCN(C(=O)c3ccc(F)cc3)C2)no1` [Example 6, (4-Fluoro-phenyl)-{(S)-3-[5-((R)-1-phenyl-ethyl)-[1,2,4]oxadiazol-3-yl]-piperidin-1-yl}-methanone]: the EC50 on rat mGluR5 is more than 10000 nM.

For `O=C(c1ccc(F)cc1)N1CCC[C@H](c2noc(Cc3ccccc3)n2)C1` [Example 7, [(S)-3-(5-Benzyl-[1,2,4]oxadiazol-3-yl)-piperidin-1-yl]-(4-fluoro-phenyl)-methanone], the melting point was determined as 75 °C. Also, the EC50 at rat mGluR5 is less than 1000 nM.

Consider `O=C(c1ccc(F)cc1)N1CCC[C@H](c2noc([C@@H](O)c3ccccc3)n2)C1` [Example 8, (4-Fluoro-phenyl)-{(S)-3-[5-((S)-hydroxy-phenyl-methyl)-[1,2,4]oxadiazol-3-yl]-piperidin-1-yl}-methanone], for which the melting point lay in the range of 168 to 172 °C. Also, the EC50 at rat mGluR5 is more than 10000 nM.

Regarding `O=C(c1ccc(F)cc1)N1CCC[C@H](c2noc([C@H](O)c3ccccc3)n2)C1` [Example 9, (4-Fluoro-phenyl)-{(S)-3-[5-((R)-hydroxy-phenyl-methyl)-[1,2,4]oxadiazol-3-yl]-piperidin-1-yl}-methanone], the EC50 at rat mGluR5 is 1000 to 10000 nM.

For the molecule `O=C(c1ccc(F)cc1)N1CCC[C@H](c2noc(CCc3ccccc3)n2)C1` [Example 10, (4-Fluoro-phenyl)-[(S)-3-(5-phenethyl-[1,2,4]oxadiazol-3-yl)-piperidin-1-yl]-methanone], the EC50 at rat mGluR5 is 1000 to 10000 nM.

In the case of `O=C(c1ccccc1)c1nc([C@H]2CCCN(C(=O)c3ccc(F)cc3)C2)no1` [Example 11, {3-[(S)-1-(4-Fluoro-benzoyl)-piperidin-3-yl]-[1,2,4]oxadiazol-5-yl}-phenyl-methanone], the melting point fell in the range of 80 to 83 °C. The EC50 at rat mGluR5 was 1000 to 10000 nM.

Turning to `O=C(c1ccc(F)cc1)N1CCC[C@H](c2noc(Nc3ccccc3)n2)C1` [Example 12, (4-Fluoro-phenyl)-[(S)-3-(5-phenylamino-[1,2,4]oxadiazol-3-yl)-piperidin-1-yl]-methanone], the EC50 on rat mGluR5 is 1000 to 10000 nM.

In the case of `O=C(c1ccc(F)cc1)N1CCC[C@H](c2noc(NCc3ccc(F)cc3)n2)C1` [Example 13, {(S)-3-[5-(4-Fluoro-benzylamino)-[1,2,4]oxadiazol-3-yl]-piperidin-1-yl}-(4-fluoro-phenyl)-methanone], at rat mGluR5, the EC50 lay in the range of 1000 to 10000 nM.

As for `O=C(c1ccc(F)cc1)N1CCC[C@H](n2nnc(Cc3ccccc3)n2)C1` [Example 14, [(S)-3-(5-Benzyl-tetrazol-2-yl)-piperidin-1-yl]-(4-fluoro-phenyl)-methanone], the EC50 at rat mGluR5 is less than 1000 nM.

In the case of `O=C(c1ccc(F)cc1)N1CCCC(c2nc(Oc3ccc(F)cc3)no2)C1` (centres unmarked) [Example 15, {3-[3-(4-Fluoro-phenoxy)-[1,2,4]oxadiazol-5-yl]-piperidin-1-yl}-(4-fluoro-phenyl)-methanone], at rat mGluR5, the concentration for a half-maximal effect (EC50) was in the range of 1000 to 10000 nM.

Molecule `O=C(c1ccc(F)cc1)N1CCCC(c2nc(Oc3ccccc3)no2)C1` (centres unmarked) [Example 16, (4-Fluoro-phenyl)-[3-(3-phenoxy-[1,2,4]oxadiazol-5-yl)-piperidin-1-yl]-methanone] gave a melting point of 96 to 100 °C. For the same molecule, on rat mGluR5, the EC50 is less than 1000 nM.

On to `O=C(c1ccc(F)nc1)N1CCC[C@H](c2nc(Oc3ccccc3)no2)C1` [Example 17, (6-Fluoro-pyridin-3-yl)-[(S)-3-(3-phenoxy-[1,2,4]oxadiazol-5-yl)-piperidin-1-yl]-methanone], for which, at rat mGluR5, the EC50 is less than 1000 nM.

As for `O=C(c1ccc(F)nc1)N1CCC[C@H](c2nc(Oc3ccccc3F)no2)C1` [Example 18, {(S)-3-[3-(2-Fluoro-phenoxy)-[1,2,4]oxadiazol-5-yl]-piperidin-1-yl}-(6-fluoro-pyridin-3-yl)-methanone], the EC50 on rat mGluR5 was in the range of 1000 to 10000 nM.

`O=C(c1ccc(F)nc1)N1CCC[C@H](c2nc(Oc3cccc(F)c3)no2)C1` [Example 19, {(S)-3-[3-(3-Fluoro-phenoxy)-[1,2,4]oxadiazol-5-yl]-piperidin-1-yl}-(6-fluoro-pyridin-3-yl)-methanone]: at rat mGluR5, the EC50 was less than 1000 nM.

Regarding `O=C(c1ccc(F)cc1)N1CCC[C@H](c2nc(Sc3ccccc3)no2)C1` [Example 20, (4-Fluoro-phenyl)-[(S)-3-(3-phenylsulfanyl-[1,2,4]oxadiazol-5-yl)-piperidin-1-yl]-methanone], the EC50 at rat mGluR5 was more than 10000 nM.

Consider `O=C(c1ccc(F)cc1)N1CCCC(c2nc(Oc3cccc(F)c3)no2)C1` (centres unmarked) [Example 21, {3-[3-(3-Fluoro-phenoxy)-[1,2,4]oxadiazol-5-yl]-piperidin-1-yl}-(4-fluoro-phenyl)-methanone], for which the melting point was 99 to 102 °C. For the same molecule, the EC50 at rat mGluR5 is less than 1000 nM.

`O=C(c1ccncc1F)N1CCC[C@H](c2nc(Oc3ccccc3)no2)C1` [Example 22, (3-Fluoro-pyridin-4-yl)-[(S)-3-(3-phenoxy-[1,2,4]oxadiazol-5-yl)-piperidin-1-yl]-methanone]: at rat mGluR5, the EC50 fell in the range of 1000 to 10000 nM.
